Patent US6727264B1 (Synaptic Pharmaceutical Corporation, priority 2001, dated 2004)

target: rat MCH-1 (Rattus norvegicus, UniProt P97639); test: Radioligand binding assay at cloned rat MCH1 receptor ([3H] Compound A); parameters: host or cells: Peak rapid 293 (Peakr293) cells, transient calcium phosphate transfection, membranes; details: cloned rat MCH1 receptor; 0.08 nM [3H] Compound A; Peakr293 cell membranes; read-out: Ki (nM) rMCH1
Sequence (P97639 whole entry): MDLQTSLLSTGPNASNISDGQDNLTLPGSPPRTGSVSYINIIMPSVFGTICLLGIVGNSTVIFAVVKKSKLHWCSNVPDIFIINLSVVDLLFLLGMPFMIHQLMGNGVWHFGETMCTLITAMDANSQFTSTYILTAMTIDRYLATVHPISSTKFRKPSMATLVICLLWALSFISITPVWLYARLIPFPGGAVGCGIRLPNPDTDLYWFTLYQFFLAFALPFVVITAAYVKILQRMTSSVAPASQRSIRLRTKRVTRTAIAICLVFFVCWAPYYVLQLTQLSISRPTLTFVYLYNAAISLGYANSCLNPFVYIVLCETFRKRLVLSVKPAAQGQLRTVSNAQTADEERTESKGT

Row | SMILES | Ki
1 | Cc1ccccc1-c1ccc2c(CN3CCC(c4cccc(NC(=O)C(C)C)c4)CC3)c[nH]c2c1 [Example 519] | 80.9 nM
2 | CC(C)C(=O)Nc1cccc(C2CCN(Cc3c[nH]c4c(-c5cccc(Cl)c5)cccc34)CC2)c1 [Example 520] | 135 nM
3 | CC(C)C(=O)Nc1cccc(C2CCN(Cc3c[nH]c4c(-c5cccc([N+](=O)[O-])c5)cccc34)CC2)c1 [Example 521] | 27 nM
4 | CC(=O)c1ccc(-c2cccc3c(CN4CCC(c5cccc(NC(=O)C(C)C)c5)CC4)c[nH]c23)cc1 [Example 522] | 247 nM
5 | CCc1ccc(-c2ccc3c(CN4CCC(c5cccc(NC(=O)C(C)C)c5)CC4)c[nH]c3c2)cc1 [Example 523] | 54.8 nM
6 | Cc1ccccc1-c1cccc2c(CN3CCC(c4cccc(NC(=O)C(C)C)c4)CC3)c[nH]c12 [Example 524] | 199 nM
7 | CC(C)C(=O)Nc1cccc(C2CCN(Cc3c[nH]c4cc(-c5ccccc5F)ccc34)CC2)c1 [Example 525] | 91.4 nM
8 | CC(C)C(=O)Nc1cccc(C2CCN(Cc3c[nH]c4ccc(Br)cc34)CC2)c1 [Example 526] | 411 nM
9 | Cc1ccc(Oc2ccc3[nH]cc(CN4CCC(c5cccc(NC(=O)C(C)C)c5)CC4)c3c2)cc1 [Example 527] | 226 nM
10 | CC(C)C(=O)Nc1cccc(C2CCN(CCCCCCC(=O)c3ccccc3)CC2)c1 [Example 528] | 115 nM
11 | CC(C)C(=O)Nc1cccc(C2CCN(CCCCCC(=O)c3ccccc3)CC2)c1 [Example 529] | 42.4 nM
12 | CCC(=O)Nc1cccc(C2CCN(CCCC(=O)c3ccc(OC)cc3)CC2)c1 [Example 531] | 105 nM
13 | CCC(=O)Nc1cccc(C2CCN(CCCC(=O)c3ccc(Cl)cc3)CC2)c1 [Example 532] | 8.7 nM
14 | CCC(=O)Nc1cccc(C2CCN(CCCC(=O)c3ccc(Br)cc3)CC2)c1 [Example 533] | 10.6 nM
15 | CCC(=O)Nc1cccc(C2CCN(CCCC(=O)c3ccc(C(C)(C)C)cc3)CC2)c1 [Example 534] | 155 nM
16 | CCC(=O)Nc1cccc(C2CCN(CCCC(=O)c3ccc(F)cc3)CC2)c1 [Example 535] | 28.1 nM

Row | SMILES | Ki
17 | CCC(=O)Nc1cccc(C2CCN(CCCC(=O)c3ccc(Oc4ccccc4)cc3)CC2)c1 [Example 536] | 150 nM
18 | CC(C)c1ccc(C(=O)CCCN2CCC(c3cccc(NC(=O)C4CC4)c3)CC2)cc1 [Example 537] | 67.7 nM
19 | COc1ccc(C(=O)CCCN2CCC(c3cccc(NC(=O)C4CC4)c3)CC2)cc1 [Example 538] | 36.3 nM
20 | O=C(CCCN1CCC(c2cccc(NC(=O)C3CC3)c2)CC1)c1ccc(Oc2ccccc2)cc1 [Example 539] | 268 nM
21 | CCC(=O)Nc1cccc(C2CCN(CCCC(=O)c3ccc(C(C)C)cc3)CC2)c1 [Example 540] | 172 nM
22 | CC(C)(C)c1ccc(C(=O)CCCN2CCC(c3cccc(NC(=O)C4CC4)c3)CC2)cc1 [Example 541] | 319 nM
23 | CCC(=O)Nc1cccc(C2CCN(CCCC(=O)c3ccc(C)cc3)CC2)c1 [Example 542] | 31.3 nM
24 | CCC(=O)Nc1cccc(C2CCN(CCCC(=O)c3ccc(C)c(C)c3)CC2)c1 [Example 543] | 27.6 nM
25 | O=C(CCCN1CCC(c2cccc(NC(=O)C3CC3)c2)CC1)c1ccc(Br)cc1 [Example 544] | 16.2 nM
26 | CCC(=O)Nc1cccc(C2CCN(CCCCC(=O)c3ccc(F)cc3)CC2)c1 [Example 545] | 52 nM
27 | Cc1ccc(C(=O)CCCN2CCC(c3cccc(NC(=O)C4CC4)c3)CC2)cc1C [Example 546] | 87.9 nM
28 | Cc1ccc(C(=O)CCCN2CCC(c3cccc(NC(=O)C4CC4)c3)CC2)cc1 [Example 547] | 75.5 nM
29 | O=C(CCCN1CCC(c2cccc(NC(=O)C3CC3)c2)CC1)c1ccc(F)cc1 [Example 548] | 126 nM
30 | O=C(CCCCN1CCC(c2cccc(NC(=O)C3CC3)c2)CC1)c1cccc(F)c1 [Example 549] | 39.7 nM
31 | CCC(=O)Nc1cccc(C2CCN(CCCCC(=O)c3ccc(C(F)(F)F)cc3)CC2)c1 [Example 550] | 60.9 nM
32 | O=C(CCCCN1CCC(c2cccc(NC(=O)C3CC3)c2)CC1)c1ccc(F)cc1 [Example 551] | 21.6 nM
